Common to all, as to format: in vivo
Experiment [1] concerns South American brown stink bug, Euschistus heros. Briefly: Bean-piece dip bioassay on third-instar nymphs of South American brown stink bug (Example 6). To be noted: Compound I alone, dose rate 0.04 weight %, treated bean pieces. From the text: (§1) The method described in Colby S. R., “Calculating Synergistic and Antagonistic Responses of Herbicide Combinations,” Weeds, 1967, 15, 20-22 was used to determine an existence of synergic effect between the sulfoximine-based nAChR agonist compound and the pesticide (I), (II) or any agriculturally acceptable salt thereof in the formulated pesticidal composition. In this method, the percent insect control of the formulated pesticidal composition as observed in the study was compared to the “expected” percent control (E) as calculated by equation (1) (hereinafter “Colby's equation”) below: […]
The active compounds were formulated in a 10% acetone solution with 0.025% non-ionic surfactant, TWEEN® 20. Bioassays were performed for each different active solution. Bean pieces (about one inch-long) were used for the tests. Four bean pieces were placed in each tested active solution and left there for 10 minutes. Bean pieces were taken out of the active solution, and each piece was placed in a well in a 32-well tray and allowed to air dry. Three third-instar nymphs of South American brown stink bug, Euschistus heros, were infested into each well.

Experiment [2] has as its system Western flower thrips, Frankliniella occidentalis. Briefly: Cotton leaf punch dip bioassay on larval stage 2 nymphs of Western flower thrips (Examples 7A-7D). To be noted: Compound I alone, dose rate 0.04 weight %, treated cotton leaf punches.
From the text: as §1
The active compounds were formulated in a 10% acetone solution with 0.025% non-ionic surfactant, TWEEN® 20. Cotton leaf punches were used for bioassays. Two cotton leaf punches were placed in each solution and left there for 10 minutes. Leaves were taken out of the solution, placed on a piece of filter paper in separated Petri dishes, and air dried. Each leaf disc was considered a repetition. Five larval stage 2 nymphs of Western flower thrips, Frankliniella occidentalis, were infested per repetition.

Experiment [3] concerns brown stink bug, Euschistus heros. The experiment is described as follows: Diet-treatment bioassay on second-instar nymphs of brown stink bug (Examples 5A, 5B). The following applies: Compound II alone, dose rate 0.04 weight %, applied to diet.
From the text: as §1
The percent control of the pesticidal composition against brown stink bug, Euschistus heros, was determined as the “Observed” action, and compared to those obtained by using about 0.04 weight % of Compound II, and using about 0.000156 weight % of sulfoxaflor alone. The “Colby's Expected Action” was calculated using Colby's equation as discussed previously.

For the compound `CCN(C(=O)CCSCCC(F)(F)F)c1cn(-c2cccnc2)nc1Cl` [Compound I, N-(3-chloro-1-(pyridin-3-yl)-1H-pyrazol-4-yl)-N-ethyl-3-((3,3,3-trifluoropropyl)thio)propanamide], the “% Control Four Days After Treatment” value in experiment [1] was 0%. Besides, the “% Control Three Days After Treatment” value in experiment [2] turned out to be 0%.

`CCN(C(=O)CC[S+]([O-])CCC(F)(F)F)c1cn(-c2cccnc2)nc1Cl` (stereo not drawn) [Compound II, N-(3-chloro-1-(pyridin-3-yl)-1H-pyrazol-4-yl)-N-ethyl-3-((3,3,3-trifluoropropyl)sulfinyl)propanamide]: in experiment [3], the “% Control Six Days After Treatment” value is listed as “no control”.

(Values after patent publication US9788545B2, “Synergistic pesticidal compositions and related methods” (Dow AgroSciences LLC, priority 2013, dated 2017).)
